The results in this text go back to article PMC3563301 (Journal of medicinal chemistry, 2012).

In one series the test system is OVCAR-8. The experiment in a line: Growth inhibition of OVCAR-8 cells. It counts as cell-based. The conditions noted are these: Homo sapiens, OVCAR-8, 96 h, read-out: IC50 ± SD OVCAR-8.
Series [1] has as its system HeLa, HT29, A549, HCT 116, and HCT 15 cell lines. The experiment in a line: Average growth inhibition over five cell lines. It counts as cell-based. The conditions noted are these: Homo sapiens, read-out: average IC50 for the five cell lines, HeLa, HT-29, A549, HCT 116, HCT 15; for comparative purposes.
Series [2] has as its system U87MG cells. In words: Loss of mitochondrial potential. It counts as cell-based, human. The conditions noted are these: 30 μM, 24 h, JC-1.
In another series the target is CYP2D6 (Homo sapiens, UniProt P10635). In words: CYP450 inhibition, CYP2D6. It counts as biochemical. The settings on record: recombinant CYP2D6 (Supersomes, Gentest), pH 7.4.
Sequence of CYP2D6 (P10635 whole entry): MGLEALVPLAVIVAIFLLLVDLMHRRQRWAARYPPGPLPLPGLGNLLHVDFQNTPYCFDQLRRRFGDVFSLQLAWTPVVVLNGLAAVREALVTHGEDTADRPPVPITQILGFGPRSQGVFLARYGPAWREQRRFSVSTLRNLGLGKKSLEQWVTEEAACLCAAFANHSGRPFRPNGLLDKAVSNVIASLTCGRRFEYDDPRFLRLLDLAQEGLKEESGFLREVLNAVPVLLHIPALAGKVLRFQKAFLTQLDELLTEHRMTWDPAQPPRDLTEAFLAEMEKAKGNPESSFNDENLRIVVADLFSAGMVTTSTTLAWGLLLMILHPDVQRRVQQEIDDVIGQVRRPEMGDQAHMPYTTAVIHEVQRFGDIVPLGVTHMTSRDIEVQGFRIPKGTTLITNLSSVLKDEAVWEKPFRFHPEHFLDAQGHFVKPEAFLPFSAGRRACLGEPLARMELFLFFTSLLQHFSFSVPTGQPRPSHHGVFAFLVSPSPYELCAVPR
The next series is described as follows: Caco-2 cell permeability. It counts as in vitro ADME. The settings on record: human.
For series [3], the system named is U87MG cells. The experiment in a line: ROS generation. The settings on record: 400 mM H2O2, 1 h treatment. It counts as cell-based, human.

For the compound `CC[C@]1(O)C[C@@H]2CN(CCc3c([nH]c4ccccc34)[C@@](C(=O)OC)(c3cc4c(cc3OC)N(C)[C@H]3[C@@](O)(C(=O)OC)[C@H](OC(C)=O)[C@]5(CC)C=CCN6CC[C@]43[C@@H]65)C2)C1` [VBL, vinblastine], the IC50 in the series with OVCAR-8 was found to be 15 ± 7 nM; in series [1], 17 nM. Take `N#CC(C#N)=NNc1cccc(Cl)c1` [CCCP, carbonyl cyanide m-chlorophenylhydrazone]: the mitochondrial potential dissipation result in the series with U87MG cells [2] is listed as “about 50%”. Take `COc1ccc(/C=C\c2cc(OC)c(OC)c(OC)c2)cc1O` [Compound 2, combretastatin A-4]: in series [1], the IC50 was over 2030 nM. With `COc1cc(Sc2c(-n3cncn3)[nH]c3ccccc23)cc(OC)c1OC` [Compound 20, 2-(1H-1,2,4-Triazol-1-yl)-3-((3,4,5-trimethoxyphenyl)thio)-1H-indole], at CYP2D6, the inhibition at 30 min, 1 µM was under 50%. In “Caco-2 cell permeability”, `CN/C(=N/CCSCc1nc[nH]c1C)NC#N` [cimetidine] yielded a Papp A→B at 2 h, 10 μM of 0.11 ×10⁻⁶ cm/s and a basolateral-to-apical permeability (Papp B→A) at 2 h, 10 μM of 2.13 ×10⁻⁶ cm/s. For the compound `COc1cc(Sc2c(-n3ccnc3)[nH]c3ccccc23)cc(OC)c1OC` [Compound 18, 2-(1H-Imidazol-1-yl)-3-((3,4,5-trimethoxyphenyl)thio)-1H-indole], the inhibition at 30 min, 1 µM at CYP2D6 is under 50%.

On to `CC(=O)O[C@H]1C(=O)[C@@]2(C)[C@H]([C@H](OC(=O)c3ccccc3)[C@]3(O)C[C@H](OC(=O)[C@H](O)[C@@H](NC(=O)c4ccccc4)c4ccccc4)C(C)=C1C3(C)C)[C@]1(OC(C)=O)CO[C@@H]1C[C@@H]2O` [PTX, paclitaxel], for which the IC50 in series [1] turned out to be 23 nM. On to `COc1cc(Sc2c(-c3cccnc3)[nH]c3ccccc23)cc(OC)c1OC` [Compound 55, 2-(Pyridin-3-yl)-3-((3,4,5-trimethoxyphenyl)thio)-1H-indole], for which the inhibition at 30 min, 1 µM at CYP2D6 was under 50%. In the case of `COc1cc(Sc2c(-c3ccncc3)[nH]c3ccccc23)cc(OC)c1OC` [Compound 57, 2-(Pyridin-4-yl)-3-((3,4,5-trimethoxyphenyl)thio)-1H-indole], the inhibition at 30 min, 1 µM at CYP2D6 is under 50%.

With `OO` [hydrogen peroxide], in the series on U87MG cells [3], the “ROS, fluorescence intensity with respect to control” value came to 208%.
